The values below come from US4229471A, “N-(2-Ethylhexyl)-crotonamides” (The Lion Dentifrice Co., Ltd., priority 1978, dated 1980).

One data set can be described thus: Acute toxicity test. The conditions noted are these: in vivo, ip; ICR male mouse, intraperitoneal.
Data set [1] relates to cancerized mast cells (Mastocytoma P-815). Nature of the data set: Inhibition of growth of cancerized mast cells (Mastocytoma P-815) during 20 hours of cultivation. The note with it: 20 hour cultivation, 37° C., FIG. 5. The data set is classed as cell-based, mouse. The method, then: 20 ml of a culture medium containing cancerized mast cells of a mouse (Mastocytoma P-815) at an inoculum cell concentration of 1.6×10^5 cells/ml in Fischer and Sartorelli's medium supplemented with 5% fetal calf serium were cultured in a 120 ml Erlenmeyer flask with or without drugs to be tested in an atmosphere of 5% CO2 and 95% air at 37° C. for 20 hours in a humidified incubator. Drugs, N-(2-ethylhexyl)-crotonamide, N-(2-ethylhexyl)-β-methylcrotonamide or N-(2-ethylhexyl)-β-hydroxybutyramide were added in different amounts to the initial culture medium. No drug was added to a control solution. After cultivation, the number of cells was counted.
The results are shown in FIG. 5 wherein A corresponds to N-(2-ethylhexyl)-crotonamide, B corresponds to N-(2-ethylhexyl)-beta-methylcrotonamide, C corresponds to N-(2-ethylhexyl)-beta-hydroxybutyramide, D is the inoculum cell number, and E corresponds to the control. A, B, C and E are the cell numbers after 20 hour cultivation as described above.

The subject of a further data set is Mastocytoma P-815. The experiment in a line: Ascites tumor (Mastocytoma P-815) inhibition in BDF1 mice. Type of data set: in vivo. The conditions noted are these: 0.5 mg/mouse/day × 6, intraperitoneal. As for the experimental part:
Mice of BDF1 species (5 week old male, suppliers: Charles River and Shizuoka Laboratory Animal Center) were divided into four groups each containing three to six. Cancerized mast cells (Mastocytoma P-815) were implanted into the ascites of a mouse in an amount of 1×10^6 cells/mouse. From the next day, drug
A: N-(2-ethylhexyl)-crotonamide,
B: N-(2-ethylhexyl)-beta-methylcrotonamide, or
C: N-(2-ethylhexyl)-beta-hydroxybutyramide
was administered once a day by intra-peritoneal injection in an amount of 0.5 mg/mouse/day for 6 days, respectively. After 18 hours from the last administration, the mice were killed with ether for anesthesia. The entire ascitic cells were taken out with about 20 ml of phosphate buffered saline. Using the nigrosine staining method (0.01% nigrosine in Earl's balanced salt solution), the number of cells, particularly, live cells were counted by means of a Thomas leucocyte counting apparatus.
For the above-described administration procedure was used 50 mg of the drug to which 25 mg of polyoxyethylene sorbitan monooleate (Tween 80) was added and the mixture was suspended in 5 ml of physiological salt solution and sterilized in an autoclave at 120° C. under 2 atm. for 15 minutes. The resulting sterile suspension was ready for administration.
**Tumor inhibition ratio was calculated in terms of the following
C : number of ascites cancer cells in the control group
N : number of ascites cancer cells in the treated group

Data set [2] relates to DNA synthesis in cancerized mast cells (Mastocytoma P-815). The experiment in a line: 3H-TdR incorporation into DNA of cancerized mast cells. The data set is classed as cell-based, mouse. The conditions noted are these: for inhibition at 100 µg/mL / inhibition at 500 µg/mL: Mus musculus, P815, 1.25 h, read-out: DNA synthesis inhibition ratio. The method, then:
Effects of drugs on ^3 H-TdR (tritium labelled thymidine) incorporation into DNA of cancerized mast cells were examined.
Cancerized mast cells (Mastocytoma P-815), 4.25×10^6 cells, were incubated for 15 minutes with or without each of drugs, A: (N-(2-ethylhexyl)-crotonamide), B: (N-(2-ethylhexyl)-β-methylcrotonamide) and C: (N-(2-ethylhexyl)-β-hydroxybutyramide) (each 100 μg and 500 μg) in 1 cc of Fischer culture medium. Thereafter, 0.1 μCi of ^3 H-TdR was added and incubation was proceeded for an additional 60 minutes. The cells were washed with PBS and the DNA was precipitated with 5% (W/V) trichloroacetic acid. Precipitates were counted in a liquid Scintillation Spectrometer.
*Inhibition ratio was calculated in terms of the following equation: […]
c : amount of ^3 H--TdR incorporated in the control group (cpm)
s : amount of ^3 H--TdR incorporated in the treated group (cpm)

The nature of another data set: Solubility. Type of data set: physicochemical. The note with it: for solubility in organic solvents: organic solvents such as acetone.
The subject of the next data set is cancerous cells. Nature of the data set: Carcinostatic activity (overall statement).
[3] abbreviates: Shizuoka Laboratory Animal Center BDF1 mice.

By LD50 is commonly meant the dose at which mortality reaches 50%. A higher LD50 goes with a less toxic substance. Consider `C/C=C/C(=O)NCC(CC)CCCC` (stereo not drawn) [Drug A, N-(2-ethylhexyl)-crotonamide], for which the LD50 in the data set “Acute toxicity test” is 540 mg/kg. In addition, the “inhibition of division and growth of cancerized mast cells” value in data set [1] is listed as “more effective than N-(2-ethylhexyl)-β-hydroxybutyramide”. Besides, in the data set with Mastocytoma P-815 (Charles River BDF1 mice), the “Number of ascites cancer cells” value was 1.5 ×10^8 /mouse and the Tumor inhibition ratio came out at 90.9%. In the data set on Mastocytoma P-815 (setting [3]), the “Number of ascites cancer cells” value is on record as 1.2 ×10^8 /mouse and the Tumor inhibition ratio turned out to be 87.6%. The “inhibition of DNA synthesis (in words)” value in data set [2] is recorded as “effective in inhibiting DNA synthesis”. In addition, in data set [2] (100 μg in 1 cc medium), the “3H-TdR incorporated (cpm)” value stood at 400 cpm and the inhibition at 100 µg/mL was found to be 90.1%. In data set [2] (500 μg in 1 cc medium), the “3H-TdR incorporated (cpm)” value is given as 75 cpm and the inhibition at 500 µg/mL came out at 98.1%. In addition, in the data set “Solubility”, the “solubility in organic solvents” value is “soluble in organic solvents such as acetone” and the solubility in water entry is reported as “insoluble in water”. Moreover, in the data set with cancerous cells, the carcinostatic activity entry is reported as “high carcinostatic activity”.

On to `CCCCC(CC)CNC(=O)C=C(C)C` (stereo not drawn) [Drug B, N-(2-ethylhexyl)-β-methylcrotonamide], for which the LD50 in “Acute toxicity test” was 1400 mg/kg. Moreover, the “inhibition of division and growth of cancerized mast cells” value in data set [1] is reported as “more effective than N-(2-ethylhexyl)-β-hydroxybutyramide”. For the same molecule, in the data set on Mastocytoma P-815 (Charles River BDF1 mice), the “Number of ascites cancer cells” value is 9.5 ×10^8 /mouse and the Tumor inhibition ratio turned out to be 42.1%. Besides, in the data set on Mastocytoma P-815 (setting [3]), the “Number of ascites cancer cells” value was 4.0 ×10^8 /mouse and the Tumor inhibition ratio stood at 58.8%. Also, the “inhibition of DNA synthesis (in words)” value in data set [2] is given as “effective in inhibiting DNA synthesis”. In data set [2] (100 μg in 1 cc medium), the “3H-TdR incorporated (cpm)” value stood at 200 cpm and the inhibition at 100 µg/mL stood at 95.1%. Also, in data set [2] (500 μg in 1 cc medium), the “3H-TdR incorporated (cpm)” value was determined as 0 cpm and the inhibition at 500 µg/mL worked out at 100%. Also, in “Solubility”, the “solubility in organic solvents” value was “soluble in organic solvents such as acetone” and the solubility in water entry is recorded as “insoluble in water”. In addition, in the data set on cancerous cells, the carcinostatic activity entry is on record as “high carcinostatic activity”.

For the molecule `CCCCC(CC)CNC(=O)CC(C)O` (stereo not drawn) [Drug C, N-(2-ethylhexyl)-β-hydroxybutyramide, reference compound], in the data set on Mastocytoma P-815 (Charles River BDF1 mice), the “Number of ascites cancer cells” value is 6.0 ×10^8 /mouse and the Tumor inhibition ratio was 63.4%. Besides, in the data set on Mastocytoma P-815 (setting [3]), the “Number of ascites cancer cells” value is listed as 6.7 ×10^8 /mouse and the Tumor inhibition ratio was determined as 30.9%. In data set [2] (100 μg in 1 cc medium), the “3H-TdR incorporated (cpm)” value is 2205 cpm and the inhibition at 100 µg/mL is 45.6%. In data set [2] (500 μg in 1 cc medium), the “3H-TdR incorporated (cpm)” value stood at 1200 cpm and the inhibition at 500 µg/mL was 70.4%.
